Reference: patent US6001849A, “Furopyridine, thienopyridine pyrrolopyridine useful in controlling chemical synaptic transmission” (Abbott Laboratories, priority 1997, dated 1999)
Where a name gives a salt, the structure may show the parent alone. Read-outs that look alike come from different tables or passages of the source.

Tests used:
[1] = target: neuronal nicotinic acetylcholine receptors; experiment: [3H]-cytisine ligand-receptor binding assay (crude synaptic membranes from whole rat brain); settings: for binding to the nicotinic acetylcholine receptor (in words): preferred compounds
Description: For the purpose of identifying compounds as nicotinic acetylcholinergic agents which are capable of interacting with neuronal nicotinic acetylcholine receptors in the brain, a ligand-receptor binding assay was carried out as the initial screen. Compounds of the present invention were effective at interacting with neuronal nicotinic acetylcholine receptors as assayed for their ability to displace radioligand from neuronal nicotinic acetylcholine receptors labeled with [^3 H]-cytisine ([^3 H]-CYT).
A. Protocol For Determination of Nicotinic Acetylcholine Receptor Binding Potencies of Ligands
Binding of [^3 H]-CYT to nicotinic acetylcholine receptors was accomplished using crude synaptic membrane preparations from whole rat brain (Pabreza et al., Molecular Pharmacol., 1990, 39:9). Washed membranes were stored at -80° C. prior to use. Frozen aliquots were slowly thawed and resuspended in 20 volumes of buffer (containing: 120 mM NaCl, 5 mM KCl, 2 mM MgCl2, 2 mM CaCl2 and 50 mM Tris-Cl, pH 7.4 @4° C.). After centrifuging at 20,000×g for 15 minutes, the pellets were resuspended in 30 volumes of buffer. Homogenate (containing 125-150 μg protein) was added to triplicate tubes containing concentrations of test compound and [^3 H]-CYT (1.25 nM) in a final volume of 500 μL. Samples were incubated for 60 minutes at 4° C., then rapidly filtered through Whatman GF/B filters presoaked in 0.5% polyethylimine using 3×4 mL of ice-cold buffer. The filters were counted in 4 mL of Ecolume® (ICN). Nonspecific binding was determined in the presence of 10 μM (-)-nicotine and values were expressed as a percentage of total binding.

[2] = tested on: neuronal nicotinic acetylcholine receptors in IMR-32 cells; experiment: 86Rb+ efflux assay in IMR-32 neuroblastoma cells; assay type: cell-based, human; settings: for IMR-32 % max: maximal response, percent relative to 100 μM (S)-nicotine
Description: B. Protocols for the Determination of Functional Effects of Nicotinic Acetylcholine Receptor Ligands on Synaptic Transmission
Experimental cells were seeded at a density of 500,000 cells/mL into a 24-well tissue culture dish. Plated cells were allowed to proliferate for at least 48 hours before loading with 2 μCi/mL of ^86 Rb^+ (35 Ci/mmol) overnigh at 37° C.

[3] = Table 1, [3H]-cytisine 1.25 nM, 4° C., 60 min, Ki by Cheng and Prusoff, read-out: [^3 H]-Cyt Binding
[4] = Table 2, [3H]-cytisine binding, read-out: Binding
[5] = Table 1, inhibition of efflux elicited by 100 μM (S)-nicotine

Compound | Ki [1, 3] [nM] | other results
CN1CCC[C@H]1c1cc2ccncc2o1 [Example 10, 2-(1-methyl-2-(S)-pyrrolidinyl)furo[2,3-c]pyridine dihydrochloride] | 207 | 
c1cnc2cc(CN3CCCC3)oc2c1 [Example 22, 1-Pyrrolidinylmethyl-(2-furo[3,2-b]pyridine)] | 113 | 
CN1CCC[C@H]1c1cc2cccnc2o1 [Example 134, 2-(1-methyl-2-(S)-pyrrolidinyl)furo[2,3-b]pyidine hydrochloride] |  | Ki [1, 4]: 6.9 nM
CN1CCC[C@H]1c1cc2cnccc2o1 [Example 37, 2-(1-methyl-2-(S)-pyrrolidinyl)furo[3,2-c]pyridine dihydrochloride] | 1760 | 
5-chloro-2-(1-methyl-2-(S)-pyrrolidinyl)-6-(3-pyridyl)furo[3,2-b]pyridine hydrochloride [Example 59] |  | Ki [1, 4]: 672 nM
c1cnc2cc([C@H]3CC[C@H]4CCCN43)oc2c1 [Example 18, endo-2-(Hexahydro-1H-3-(R)-pyrrolizinyl)furo[3,2-b]pyridine dihydrochloride] | 38 | IMR-32 % Inhibition @ (30 μM) ([2]; Table 1, inhibition of efflux elicited by 100 μM (S)-nicotine, 30 μM): 55%
Clc1nc2cc([C@H]3CCCN3)oc2cc1-c1ccccc1 [Example 55, 2-(2-(R)-pyrrolidinyl)-5-chloro-6-phenyl furo[3,2-b]pyridinehydrochloride] |  | Ki [1, 4]: 0.16 nM; in vitro binding (in words) ([1]; Tables 1 and 2): potent in vitro binding; binding to the nicotinic acetylcholine receptor (in words) [1]: most potent binders; IMR-32 % max ([2]; Table 2): 32%
c1cnc2oc([C@@H]3CCCN3)cc2c1 [Example 36, 2-(2-(S)-pyrrolidinyl)furo[2,3-b]pyridine hydrochloride] | 611 | 
CN1CCC[C@@H]1c1cc2nc(Cl)c(-c3ccccc3)cc2o1 [Example 56, 5-chloro-2-(1-methyl-2-(R)-pyrrolidinyl)-6-phenyl furo[3,2-b]pyridine hydrochloride] |  | Ki [1, 4]: 12.9 nM
CN1CCC[C@H]1c1cc2ncc(-c3ccccc3)cc2o1 [Example 54, 2-(1-methyl-2-(S)-pyrrrolidinyl)-6-phenylfuro[3,2-b]pyridinedihydrochloride] |  | Ki [1, 4]: 104 nM
CN1CCC[C@H]1c1cc2ncc(Br)cc2o1 [Example 47, 6-bromo-2-(1-methyl-2-(S)-pyrrolidinyl)furo[3,2-b]pyridine dihydrochloride] | 38 | 
CN1CCC[C@H]1c1cc2cc(Cl)cnc2o1 [Example 14, 5-chloro-2-(1-methyl-2-(S)-pyrrolidinyl)-furo[2,3-b]pyridinedihydrochloride] | 181 | 
c1cnc2cc([C@H]3N[C@@H]4CC[C@H]3C4)oc2c1 [Example 41, 2-((1R,4S)-2-aza-3-(S)-bicyclo[2.2.1]heptyl)-furo[3,2-b]pyridine dihydrochloride] | 81 | 
Cl.Cl.c1cc2cc([C@H]3CCCN3)oc2cn1 [Example 34, 2-(2-(R)-pyrrolidinyl)furo[2,3-c]pyridine dihydrochloride] | 1710 | IMR-32 % Inhibition @ 10 μM [2, 5]: 2.8%
CN1[C@@H]2CC[C@@H](C2)[C@H]1c1cc2nc(Cl)ccc2o1 [Example 44, 2-((1R,4t)-2-aza-3-(S)-bicyclo[2.2.1]heptyl)-5-chloro-2-methylfuro[3,2-b]pyridine dihydrochloride] | 5 | 
Cl.Clc1nc2cc([C@H]3CCCN3)oc2cc1Br [Example 49, 6-bromo-5-chloro-2-(2-(R)-pyrrolidinyl)furo[3,2-b]pyridine hydrochloride] | 2.6 | IMR-32 % Inhibition @ 10 μM [2, 5]: 10%; IMR-32 % max ([2]; Table 1): 1%
CN1CCC[C@@H]1c1cc2nc(Cl)c(Br)cc2o1 [Example 50, 6-bromo-5-chloro-2-(-1-methyl-2(R)-pyrrolidinyl)furo[3,2-b]pyridine hydrochloride] | 46 | 
c1cnc2cc([C@@H]3CC[C@H]4CCCN43)oc2c1 [Example 19, exo-2-(Hexahydro-1H-3-(S)-pyrrolizinyl)furo[3,2-b]pyridine dihydrochloride] | 3950 | 
Clc1ccc2oc([C@H]3N[C@@H]4CC[C@H]3C4)cc2n1 [Example 43, 2-((1R,4S)-2-aza-3-(S)-bicyclo[2.2.1]heptyl)-5-chloro-furo[3,2-b]pyridine dihydrochloride] | 453 | 
CN1CCC[C@H]1c1cc2nccc(Cl)c2o1 [Example 51, 7-chloro-2-(1-methyl-2-(S)-pyrrolidinyl)furo[3,2-b]pyridine hydrochloride] | 443 | 

Compound | Ki [1, 3] [nM] | other results
CN1CCC[C@@H]1c1cc2nc(Cl)c(Cl)cc2o1 [Example 40, 5,6-Dichloro-2-(1-methyl-2-(R)-pyrrolidinyl)furo[3,2-b]pyridine hydrochloride] | 32 | 
Cl.Nc1cccc(-c2cc3oc([C@H]4CCCN4)cc3nc2Cl)c1 [Example 57, 6-(3-aminophenyl)-5-chloro-2-(2-(R)-pyrrolidinyl)furo[3,2-b]pyridine hydrochloride] |  | Ki [1, 4]: 0.83 nM; IMR-32 % max ([2]; Table 2): 22%
Cl.Cl.c1cc2cc([C@@H]3CCCN3)oc2cn1 [Example 9, 2-(2-(S)-pyrrolidinyl)furo[2,3-c]pyridine dihydrochloride] | 250 | IMR-32 % max ([2]; Table 1): 83%
Clc1cc2oc([C@H]3N[C@@H]4CC[C@H]3C4)cc2nc1Cl [Example 45, 2-((1R,4S)-2-aza-3-(S)-bicyclo[2.2.1]heptyl)-5,6-dichlorofuro[3,2-b]pyridine dihydrochloride] | 205 | 
Cc1ccc2sc(C34CCCN3CCC4)cc2n1 [Example 27, dihydrochloride] | 27 | 
Clc1cnc2oc([C@@H]3CCCN3)cc2c1 [Example 13, 5-chloro-2-(2-(S)-pyrrolidinyl)-furo[2,3-b]pyridine hydrochloride] | 4440 | 
Clc1ccc2oc([C@@H]3CCCN3)cc2n1 [Example 11, 5-chloro-2-(2-(S)-pyrrolidinyl)-furo[3,2-b]pyridine hydrochloride] | 58 | 
Fc1ccc2oc([C@H]3C[C@@H]4CC[C@H]3N4)cc2n1 (relative stereo) [Example 136, (±)-2-(7-aza-2-exo-bicyclo[2.2.1]heptyl)-5-fluorofuro[3,2-b]pyridine hydrochloride] |  | Ki [1, 4]: 2.4 nM
Clc1ccc2oc(C34CCCN3CCC4)cc2n1 [Example 23, 5-Chloro-2-(hexahydro-1H-7a-pyrrolizinyl)furo[3,2-b]pyridinehydrochloride] | 0.62 | binding to the nicotinic acetylcholine receptor (in words) [1]: most potent binders
CN1CCC[C@@H]1c1cc2nc(Cl)ccc2o1 [Example 32, 5-chloro-2-(1-methyl-2-(R)-pyrrolidinyl)-furo[3,2-b]pyridinehydrochloride] | 54 | 
Cc1ccc2oc([C@H]3CCCN3C)cc2n1 [Example 30, 5-methyl-2-(1-methyl-2-(R)-pyrrolidinyl)-furo[3,2-b]pyridinedihydrochloride] | 101 | 
Cc1ccc2oc([C@@H]3CCCN3)cc2n1 [Example 5, 5-methyl-2-(2-(S)-pyrrolidinyl)furo[3,2-b]pyridine dihydrochloride] | 355 | 
c1cnc2cc([C@H]3CC[C@@H]4CCCN43)oc2c1 [Example 20, exo-2-(Hexahydro-1H-3-(R)-pyrrolizinyl)furo[3,2-b]pyridine dihydrochloride] | 397 | 
Clc1ccc2oc([C@H]3C[C@@H]4CC[C@H]3N4)cc2n1 (relative stereo) [Example 135, (±)-2-(7-aza-2-exo-bicyclo[2.2.1]heptyl)-5-chlorofuro[3,2-b]pyridine hydrochloride] |  | Ki [1, 4]: 3.2 nM
c1ccc(-c2cnc3cc([C@@H]4CCCN4)oc3c2)cc1 [Example 53, 2-((S)-pyrrolidinyl)-6-phenylfuro[3,2-b]pyridine dihydrochloride] |  | Ki [1, 4]: 335 nM
Brc1cnc2cc([C@@H]3CCCN3)oc2c1 [Example 46, 6-bromo-2-(2-(S)-pyrrolidinyl)furo[3,2-b]pyridine dihydrochloride] | 468 | 
c1cc2cc(C34CCCN3CCC4)oc2cn1 [Example 17, 2-(Hexahydro-1H-7a-pyrrolizinyl)furo[2,3-c]pyridine dihydrochloride] | 88 | 
Clc1cc2oc([C@@H]3CCCN3)cc2nc1Cl [Example 25, 5,6-Dichloro-2-(2-(S)-pyrrolidinyl)furo [3,2-b]pyridine hydrochloride] | 103 | 
Clc1nc2cc([C@H]3CCCN3)oc2cc1C=Cc1ccncc1 [Example 58, 5-chloro-2-(2-(R)-pyrrolidinyl)-6-(2-(4-pyridylethenyl)furo[3,2-b]pyridine hydrochloride] |  | Ki [1, 4]: 0.31 nM; binding to the nicotinic acetylcholine receptor (in words) [1]: most potent binders
Clc1cnc2cc([C@@H]3CCCN3)oc2c1 [Example 7, 6-chloro-2-(2-(S)-pyrrolidinyl)-furo[3,2-b]pyridine dihydrochloride] | 878 | 
